Assay results reported in PubChem BioAssay (NCI).
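Growth conditions: 96-well plates. Treatment: test compound, 48 hours, 5 concentrations. Analysis: linear interpolation between bracketing concentrations; unreached endpoints set to highest concentration. At the GI50, growth is halved. TGI is the concentration that stops growth completely.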

Legend:
Assay in all cases: NCI anticancer screen, dose series, 48 h
HL-60(TB) leukemia = tested on: HL-60(TB) leukemia
OVCAR-5 ovarian = tested on: OVCAR-5 ovarian
TK-10 renal = tested on: TK-10 renal
SNB-75 CNS = tested on: SNB-75 CNS
OVCAR-3 ovarian = tested on: OVCAR-3 ovarian
HCT-116 colon = tested on: HCT-116 colon
IGROV1 ovarian = tested on: IGROV1 ovarian
UACC-62 melanoma = tested on: UACC-62 melanoma
OVCAR-4 ovarian = tested on: OVCAR-4 ovarian
A498 renal = tested on: A498 renal

SMILES	TGI (HL-60(TB) leukemia) [µM]	TGI (OVCAR-5 ovarian) [µM]	TGI (TK-10 renal) [µM]	TGI (SNB-75 CNS) [µM]	TGI (OVCAR-3 ovarian) [µM]	TGI (HCT-116 colon) [µM]	TGI (IGROV1 ovarian) [µM]	TGI (UACC-62 melanoma) [µM]	TGI (OVCAR-4 ovarian) [µM]	GI50 (HL-60(TB) leukemia) [µM]	GI50 (OVCAR-5 ovarian) [µM]	GI50 (TK-10 renal) [µM]	GI50 (SNB-75 CNS) [µM]	GI50 (OVCAR-3 ovarian) [µM]	GI50 (A498 renal) [µM]	TGI (A498 renal) [µM]	GI50 (IGROV1 ovarian) [µM]	GI50 (UACC-62 melanoma) [µM]	GI50 (OVCAR-4 ovarian) [µM]	GI50 (HCT-116 colon) [µM]
CCOC(C)OCC#CCCBr (configuration not stated)	> 100	> 100	> 100	> 100	> 100	> 100	> 100	> 100	> 100	–	–	–	–	–	–	–	–	–	–	–
CN(C(=O)C1CCCCC1)c1ccccc1I(=O)=O	36.8	> 100	> 100	> 100	> 100	–	> 100	> 100	> 100	13.5	37.2	27.4	34.6	30.5	52.1	> 100	52.2	72.4	33.2	–
COC(=O)/C(=C/c1ccc(OC)cc1)C(C(=O)O)=C(C)C	> 100	> 100	> 100	–	> 100	> 100	> 100	> 100	–	–	–	–	–	–	–	> 100	–	–	–	–
CC(C)(C)C1CC[C@H]2c3c([nH]c4ccc(Br)cc34)[C@H]3C(=O)N(c4ccccc4)C(=O)[C@H]3[C@H]2C1 (some centres not stated)	35.1	> 100	> 100	54.9	> 100	> 100	> 100	87.4	33.3	–	–	–	–	–	–	–	–	–	–	–
Cc1ccc(S(=O)(=O)N(C)C)cc1[N+](=O)[O-]	–	> 100	> 100	–	> 100	> 100	> 100	> 100	–	–	> 100	> 100	–	> 100	> 100	> 100	59.7	> 100	–	> 100
COC(=O)OCC1OC(N2C(=O)NC(=O)C(I)C2N=[N+]=[N-])CC1OC(=O)OC (configuration not stated)	> 100	> 100	> 100	> 100	> 100	> 100	> 100	> 100	> 100	–	–	–	–	–	–	–	–	–	–	–
COc1ccc(/C=C2/CN(C(=O)c3ccccc3F)C/C(=C\c3ccc(OC)cc3)C2=O)cc1	–	28.8	17.7	39.8	4.95	1.39	11.3	11.5	> 100	–	7.55	4.95	11.4	2.3	13.5	27.1	3.43	2.53	6.02	0.392
Nc1nc2ncn(CCO)c2c(=O)[nH]1	> 100	> 100	> 100	> 100	> 100	> 100	–	> 100	–	–	–	–	–	–	–	–	–	–	–	–
CN(C)CCC1(C2=CCCC2)CC/C(=C\c2ccc3c(c2)OCO3)C1=O (configuration not stated)	37	29.2	29.2	–	31.6	26.9	–	39.5	27.1	–	–	–	–	–	–	24.7	–	–	–	–
Cc1oc2ccccc2c(=O)c1Cn1nnc2ccccc21	> 100	> 100	> 100	> 100	79.7	> 100	–	> 100	> 100	–	–	–	–	–	–	> 100	–	–	–	–
O=S(=O)(Nc1ccc(-c2nc(-c3cccc(OCCN4CCOCC4)c3)c(-c3ccnc(Br)c3)[nH]2)cc1)c1ccccc1	–	> 100	> 100	–	> 100	> 100	> 100	12.1	> 100	–	5.99	4.16	–	4.71	1.53	6.94	3.98	2.66	4.16	3.09
O=c1cc2n(c(=O)[nH]1)C1OC(C(O)C1O)[C@@H]2CCO (some centres not stated)	> 100	> 100	> 100	–	–	–	> 100	> 100	> 100	–	–	–	–	–	–	> 100	–	–	–	–
CS(=O)(=O)NNS(=O)(=O)c1ccc(Br)cc1	> 100	> 100	> 100	> 100	–	> 100	> 100	> 100	> 100	–	–	–	–	–	–	> 100	–	–	–	–
O=CC1=CCCC2(C1)OCCO2	> 100	–	> 100	24.2	> 100	> 100	> 100	> 100	> 100	–	–	–	–	–	–	> 100	–	–	–	–
CC(=O)O[C@]1(C(C)=O)CC[C@H]2[C@@H]3C[C@H](C)C4=CC(=O)C=C[C@]4(C)[C@@]3(F)[C@@H](O)C[C@@]21C	> 100	> 100	> 100	> 100	> 100	> 100	> 100	> 100	90.8	–	–	–	–	–	–	–	–	–	–	–
O=C1OCC(c2ccc(O)c(O)c2)=C1c1cc(O)c(O)c(O)c1	–	34.6	> 100	> 100	26.5	35.5	> 100	> 100	70.1	–	17.7	73.1	54	12.9	> 100	> 100	37.4	52.7	26.2	18.1
N=C(N)/N=C(/C=C/c1ccccc1)CC1OC(=O)c2ccccc21 (configuration not stated)	> 100	–	–	> 100	–	> 100	> 100	> 100	> 100	–	–	–	–	–	–	> 100	–	–	–	–
COc1ccc(CC(=O)c2cc(OC)c(OC)cc2C)cc1OC	–	> 100	> 100	> 100	> 100	–	> 100	> 100	> 100	–	–	–	–	–	–	> 100	–	–	–	–
Cc1cccc(C)c1NC(=O)CCC(=O)NNC(=O)c1cc(O)c2ccccc2c1	95.2	> 100	> 100	> 100	> 100	> 100	> 100	71.3	–	–	–	–	–	–	–	3.78	–	–	–	–
N#C/C(=C\c1ccc(CP(=O)(O)O)cc1)C(N)=O	> 100	> 100	> 100	–	> 100	> 100	> 100	> 100	> 100	–	–	–	–	–	–	> 100	–	–	–	–
CCCCCCC1CCC2CCCC(C)N12 (configuration not stated)	38.2	–	> 100	> 100	> 100	> 100	–	> 100	> 100	–	–	–	–	–	–	–	–	–	–	–
